Reference: ChEMBL document CHEMBL1143288, “(-)-Cercosporamide derivatives as novel antihyperglycemic agents” (Bioorg Med Chem Lett, 2009)
Calls of active or inactive are those of the source. No cut-off for these calls is given here.

Assays:
Mus musculus [1] = assay: Antihyperglycemic activity in hyperglycemic KK/Ta mouse assessed as change in plasma glucose level administered with diet in ratio of 0.1% for 1 week relative to control; format: functional
Mus musculus [2] = assay: Antihyperglycemic activity in hyperglycemic KK/Ta mouse assessed as effect on body weight administered with diet in ratio of 0.1% for 1 week measured on day 7 relative to control; format: ADME, organism-based; details: in vivo, po, 168 h
Mus musculus [3] = assay: Antihyperglycemic activity in hyperglycemic KK/Ta mouse assessed as effect on food intake administered with diet in ratio of 0.1% for 1 week measured on day 7 relative to control; format: ADME, organism-based; details: in vivo, po, 168 h
Mus musculus [4] = assay: Antihyperglycemic activity in hyperglycemic KK/Ta mouse assessed as effect on body weight administered with diet in ratio of 0.03% for 1 week measured on day 7 relative to control; format: ADME, organism-based; details: in vivo, po, 168 h
Mus musculus [5] = assay: Antihyperglycemic activity in hyperglycemic KK/Ta mouse assessed as change in plasma glucose level administered with diet in ratio of 0.03% administered for 1 week relative to control; format: functional
Mus musculus [6] = assay: Antihyperglycemic activity in hyperglycemic KK/Ta mouse assessed as effect on food intake administered with diet in ratio of 0.03% for 1 week measured on day 7 relative to control; format: ADME, organism-based; details: in vivo, po, 168 h
[7] = molecular target: Protein kinase C gamma type (Homo sapiens, UniProt P05129); assay: Inhibition of human PKCgamma by scintillation proximity assay
Mus musculus [8] = assay: Antihyperglycemic activity in hyperglycemic KK/Ta mouse assessed as food intake administered with diet in ratio of 0.01% for 1 week measured on day 7; format: ADME, organism-based; details: in vivo, po, 168 h
Mus musculus [9] = assay: Antihyperglycemic activity in hyperglycemic KK/Ta mouse assessed as food intake administered with diet in ratio of 0.1% for 1 week measured on day 7; format: ADME, organism-based; details: in vivo, po, 168 h
Mus musculus [10] = assay: Antihyperglycemic activity in hyperglycemic KK/Ta mouse assessed as food intake administered with diet in ratio of 0.003% for 1 week measured on day 7; format: ADME, organism-based; details: in vivo, po, 168 h
[11] = molecular target: T1, Protein kinase C beta type (Homo sapiens, UniProt P05771); assay: Inhibition of human PKCbeta by scintillation proximity assay
Target sequence in this assay (P05771 whole entry): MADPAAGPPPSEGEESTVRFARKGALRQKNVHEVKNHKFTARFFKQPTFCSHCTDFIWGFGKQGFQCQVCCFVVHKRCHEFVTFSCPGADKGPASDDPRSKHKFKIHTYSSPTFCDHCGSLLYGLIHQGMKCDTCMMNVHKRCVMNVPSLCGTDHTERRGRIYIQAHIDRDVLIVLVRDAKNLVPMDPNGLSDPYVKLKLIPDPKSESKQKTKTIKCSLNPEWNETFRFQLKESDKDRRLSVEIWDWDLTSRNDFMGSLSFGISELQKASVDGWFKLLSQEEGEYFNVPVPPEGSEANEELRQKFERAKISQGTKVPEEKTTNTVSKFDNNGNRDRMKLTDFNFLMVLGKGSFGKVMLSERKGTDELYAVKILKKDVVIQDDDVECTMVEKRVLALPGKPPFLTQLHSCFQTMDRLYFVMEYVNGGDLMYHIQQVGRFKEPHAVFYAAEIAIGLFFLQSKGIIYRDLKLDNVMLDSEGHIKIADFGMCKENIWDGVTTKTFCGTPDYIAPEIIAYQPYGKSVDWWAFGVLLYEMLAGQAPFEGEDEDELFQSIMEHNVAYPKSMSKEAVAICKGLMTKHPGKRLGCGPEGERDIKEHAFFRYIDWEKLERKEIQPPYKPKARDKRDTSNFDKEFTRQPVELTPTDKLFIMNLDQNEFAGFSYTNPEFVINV

Mus musculus [12] = assay: Antihyperglycemic activity in hyperglycemic KK/Ta mouse assessed as food intake administered with diet in ratio of 0.03% for 1 week measured on day 7; format: ADME, organism-based; details: in vivo, po, 168 h
Mus musculus [13] = assay: Antihyperglycemic activity in hyperglycemic KK/Ta mouse assessed as plasma glucose level administered with diet in ratio of 0.03% for 1 week; format: functional
Mus musculus [14] = assay: Antihyperglycemic activity in hyperglycemic KK/Ta mouse assessed as body weight administered with diet in ratio of 0.03% for 1 week measured on day 7; format: ADME, organism-based; details: in vivo, po, 168 h
Mus musculus [15] = assay: Antihyperglycemic activity in hyperglycemic KK/Ta mouse assessed as body weight administered with diet in ratio of 0.01% for 1 week measured on day 7; format: ADME, organism-based; details: in vivo, po, 168 h
[16] = molecular target: T2, Protein kinase C alpha type (Homo sapiens, UniProt P17252); assay: Inhibition of human PKCalpha by scintillation proximity assay
Mus musculus [17] = assay: Antihyperglycemic activity in hyperglycemic KK/Ta mouse assessed as body weight administered with diet in ratio of 0.1% for 1 week measured on day 7; format: ADME, organism-based; details: in vivo, po, 168 h
Mus musculus [18] = assay: Antihyperglycemic activity in hyperglycemic KK/Ta mouse assessed as body weight administered with diet in ratio of 0.003% for 1 week measured on day 7; format: ADME, organism-based; details: in vivo, po, 168 h
Protein kinase C-like 1 = molecular target: T3, Protein kinase C-like 1 (Candida albicans, UniProt P43057); assay: Inhibition of Candida albicans Pkc1 expressed in insect Sf9 cells by scintillation proximity assay
T3 sequence (P43057 whole entry): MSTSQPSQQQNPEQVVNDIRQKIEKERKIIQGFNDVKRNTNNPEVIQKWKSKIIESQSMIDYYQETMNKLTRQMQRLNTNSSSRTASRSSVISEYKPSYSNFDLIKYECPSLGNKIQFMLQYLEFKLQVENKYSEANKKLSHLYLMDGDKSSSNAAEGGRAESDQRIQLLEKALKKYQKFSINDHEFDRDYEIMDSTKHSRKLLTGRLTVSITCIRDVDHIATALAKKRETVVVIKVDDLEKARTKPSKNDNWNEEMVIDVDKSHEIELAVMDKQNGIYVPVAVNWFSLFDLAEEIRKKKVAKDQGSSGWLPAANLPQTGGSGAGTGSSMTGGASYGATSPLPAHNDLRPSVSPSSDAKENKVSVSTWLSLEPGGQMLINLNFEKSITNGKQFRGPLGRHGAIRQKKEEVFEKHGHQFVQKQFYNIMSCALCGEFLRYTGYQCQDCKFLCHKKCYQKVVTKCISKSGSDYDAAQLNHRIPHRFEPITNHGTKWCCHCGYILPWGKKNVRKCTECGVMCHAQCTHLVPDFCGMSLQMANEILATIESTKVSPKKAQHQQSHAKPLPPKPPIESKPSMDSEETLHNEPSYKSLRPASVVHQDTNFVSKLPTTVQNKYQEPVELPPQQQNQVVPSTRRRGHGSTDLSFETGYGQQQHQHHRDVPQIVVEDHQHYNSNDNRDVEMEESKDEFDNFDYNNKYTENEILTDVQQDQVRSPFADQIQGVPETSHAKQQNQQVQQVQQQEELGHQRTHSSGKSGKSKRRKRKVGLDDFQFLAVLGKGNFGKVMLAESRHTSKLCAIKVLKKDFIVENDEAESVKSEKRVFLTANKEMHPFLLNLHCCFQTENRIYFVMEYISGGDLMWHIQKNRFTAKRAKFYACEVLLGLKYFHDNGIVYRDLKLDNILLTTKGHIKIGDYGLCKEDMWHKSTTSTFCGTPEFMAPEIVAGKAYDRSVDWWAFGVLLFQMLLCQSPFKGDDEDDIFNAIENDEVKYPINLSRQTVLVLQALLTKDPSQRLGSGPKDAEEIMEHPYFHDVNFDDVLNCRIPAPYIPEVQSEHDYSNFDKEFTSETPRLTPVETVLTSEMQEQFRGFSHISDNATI

Mus musculus [19] = assay: Antihyperglycemic activity in hyperglycemic KK/Ta mouse assessed as plasma glucose level administered with diet in ratio of 0.1% for 1 week; format: functional
Mus musculus [20] = assay: Antihyperglycemic activity in hyperglycemic KK/Ta mouse assessed as plasma glucose level administered with diet in ratio of 0.003% for 1 week; format: functional
Mus musculus [21] = assay: Antihyperglycemic activity in hyperglycemic KK/Ta mouse assessed as plasma glucose level administered with diet in ratio of 0.01% for 1 week; format: functional
[22] = molecular target: T1, Protein kinase C beta type; assay: Inhibition of PKCbeta1 at 1 uM
Target sequence in this assay (P05771 2-671 limits assumed): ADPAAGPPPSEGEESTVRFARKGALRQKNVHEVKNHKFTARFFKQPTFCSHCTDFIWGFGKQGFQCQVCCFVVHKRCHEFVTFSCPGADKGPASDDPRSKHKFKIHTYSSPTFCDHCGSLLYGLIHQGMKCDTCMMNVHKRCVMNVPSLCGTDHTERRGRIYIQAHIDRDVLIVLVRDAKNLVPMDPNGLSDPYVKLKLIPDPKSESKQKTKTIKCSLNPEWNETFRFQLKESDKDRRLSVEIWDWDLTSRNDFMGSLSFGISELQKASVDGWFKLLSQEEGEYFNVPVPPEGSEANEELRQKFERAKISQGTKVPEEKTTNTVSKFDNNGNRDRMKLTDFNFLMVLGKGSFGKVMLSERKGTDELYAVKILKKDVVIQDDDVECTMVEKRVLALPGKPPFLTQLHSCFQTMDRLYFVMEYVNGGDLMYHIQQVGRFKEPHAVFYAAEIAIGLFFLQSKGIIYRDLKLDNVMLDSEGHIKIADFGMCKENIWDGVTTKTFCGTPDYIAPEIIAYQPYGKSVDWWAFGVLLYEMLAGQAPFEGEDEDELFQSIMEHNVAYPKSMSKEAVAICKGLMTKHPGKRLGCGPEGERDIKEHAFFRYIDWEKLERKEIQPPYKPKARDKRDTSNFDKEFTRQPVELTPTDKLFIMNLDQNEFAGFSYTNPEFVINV

[23] = molecular target: Protein kinase C delta type (Homo sapiens) (UniProt Q05655); assay: Inhibition of PKCdelta at 1 uM
[24] = molecular target: T2, Protein kinase C alpha type; assay: Inhibition of PKCalpha at 1 uM
[25] = molecular target: T1, Protein kinase C beta type; assay: Inhibition of PKCbeta2 at 1 uM
Target sequence in this assay (P05771 2-671 limits assumed): as the sequence (P05771 2-671 limits assumed) above

[26] = molecular target: T4, Protein kinase C epsilon type (Homo sapiens) (UniProt Q02156); assay: Inhibition of PKCepsilon at 1 uM
T4 sequence (whole entry): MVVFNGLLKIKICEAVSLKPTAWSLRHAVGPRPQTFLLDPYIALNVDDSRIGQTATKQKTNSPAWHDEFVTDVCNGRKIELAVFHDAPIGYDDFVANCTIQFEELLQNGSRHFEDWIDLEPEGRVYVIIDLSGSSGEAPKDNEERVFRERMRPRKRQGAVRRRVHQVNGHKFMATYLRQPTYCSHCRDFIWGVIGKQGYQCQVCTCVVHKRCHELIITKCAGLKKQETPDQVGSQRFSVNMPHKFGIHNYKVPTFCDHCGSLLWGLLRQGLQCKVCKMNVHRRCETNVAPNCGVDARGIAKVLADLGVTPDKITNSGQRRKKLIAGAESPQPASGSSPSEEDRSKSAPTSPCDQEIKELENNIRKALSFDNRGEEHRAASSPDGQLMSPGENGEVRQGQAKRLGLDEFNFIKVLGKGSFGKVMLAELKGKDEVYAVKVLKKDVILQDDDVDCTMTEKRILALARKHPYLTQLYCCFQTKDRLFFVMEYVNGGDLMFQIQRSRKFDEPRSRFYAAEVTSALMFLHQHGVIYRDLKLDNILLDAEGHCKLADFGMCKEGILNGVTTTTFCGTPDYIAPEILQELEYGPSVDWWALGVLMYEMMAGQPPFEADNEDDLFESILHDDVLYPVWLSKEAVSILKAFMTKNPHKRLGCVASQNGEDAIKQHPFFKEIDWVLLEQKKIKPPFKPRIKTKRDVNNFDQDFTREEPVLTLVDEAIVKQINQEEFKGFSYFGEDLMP

[27] = molecular target: T5, Protein kinase C zeta type (Homo sapiens) (UniProt Q05513); assay: Inhibition of PKCzeta at 1 uM
T5 sequence (whole entry): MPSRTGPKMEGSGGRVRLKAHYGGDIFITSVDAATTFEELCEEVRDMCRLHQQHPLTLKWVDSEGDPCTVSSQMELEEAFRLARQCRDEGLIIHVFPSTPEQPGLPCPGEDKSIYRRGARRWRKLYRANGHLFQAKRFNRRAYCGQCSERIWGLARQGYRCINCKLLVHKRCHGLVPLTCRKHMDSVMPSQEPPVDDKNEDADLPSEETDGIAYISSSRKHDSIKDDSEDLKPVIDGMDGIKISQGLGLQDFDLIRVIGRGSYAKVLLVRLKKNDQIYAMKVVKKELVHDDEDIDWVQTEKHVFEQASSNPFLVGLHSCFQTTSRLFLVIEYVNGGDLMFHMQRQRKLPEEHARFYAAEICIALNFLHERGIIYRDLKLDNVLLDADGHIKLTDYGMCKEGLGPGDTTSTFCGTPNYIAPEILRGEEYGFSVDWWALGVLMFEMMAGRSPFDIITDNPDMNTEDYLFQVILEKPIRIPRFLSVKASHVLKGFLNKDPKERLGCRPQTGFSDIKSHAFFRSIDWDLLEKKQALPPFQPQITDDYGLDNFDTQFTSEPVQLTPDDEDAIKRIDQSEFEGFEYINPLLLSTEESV

[28] = molecular target: Protein kinase C eta type (Homo sapiens) (UniProt P24723); assay: Inhibition of PKCeta at 1 uM
Sequence of Protein kinase C eta type (Homo sapiens) (P24723 whole entry): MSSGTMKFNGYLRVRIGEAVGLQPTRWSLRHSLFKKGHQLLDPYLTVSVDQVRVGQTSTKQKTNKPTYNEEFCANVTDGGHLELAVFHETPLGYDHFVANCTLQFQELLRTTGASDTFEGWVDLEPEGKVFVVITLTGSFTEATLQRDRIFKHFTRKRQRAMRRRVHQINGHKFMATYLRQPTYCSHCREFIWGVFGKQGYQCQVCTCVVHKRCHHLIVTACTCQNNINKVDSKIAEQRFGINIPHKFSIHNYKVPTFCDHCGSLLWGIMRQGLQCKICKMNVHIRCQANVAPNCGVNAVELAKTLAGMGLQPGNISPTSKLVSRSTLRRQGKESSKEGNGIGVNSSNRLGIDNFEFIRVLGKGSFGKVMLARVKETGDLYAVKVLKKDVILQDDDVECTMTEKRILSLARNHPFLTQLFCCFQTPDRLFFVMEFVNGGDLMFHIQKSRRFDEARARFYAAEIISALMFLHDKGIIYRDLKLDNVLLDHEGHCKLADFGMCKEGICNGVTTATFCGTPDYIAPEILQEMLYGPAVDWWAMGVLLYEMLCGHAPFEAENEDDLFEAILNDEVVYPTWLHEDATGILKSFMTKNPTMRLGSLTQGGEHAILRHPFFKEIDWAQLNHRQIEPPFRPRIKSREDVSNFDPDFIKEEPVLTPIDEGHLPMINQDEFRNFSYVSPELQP

Sequence of Protein kinase C delta type (Homo sapiens) (Q05655 whole entry, looked up): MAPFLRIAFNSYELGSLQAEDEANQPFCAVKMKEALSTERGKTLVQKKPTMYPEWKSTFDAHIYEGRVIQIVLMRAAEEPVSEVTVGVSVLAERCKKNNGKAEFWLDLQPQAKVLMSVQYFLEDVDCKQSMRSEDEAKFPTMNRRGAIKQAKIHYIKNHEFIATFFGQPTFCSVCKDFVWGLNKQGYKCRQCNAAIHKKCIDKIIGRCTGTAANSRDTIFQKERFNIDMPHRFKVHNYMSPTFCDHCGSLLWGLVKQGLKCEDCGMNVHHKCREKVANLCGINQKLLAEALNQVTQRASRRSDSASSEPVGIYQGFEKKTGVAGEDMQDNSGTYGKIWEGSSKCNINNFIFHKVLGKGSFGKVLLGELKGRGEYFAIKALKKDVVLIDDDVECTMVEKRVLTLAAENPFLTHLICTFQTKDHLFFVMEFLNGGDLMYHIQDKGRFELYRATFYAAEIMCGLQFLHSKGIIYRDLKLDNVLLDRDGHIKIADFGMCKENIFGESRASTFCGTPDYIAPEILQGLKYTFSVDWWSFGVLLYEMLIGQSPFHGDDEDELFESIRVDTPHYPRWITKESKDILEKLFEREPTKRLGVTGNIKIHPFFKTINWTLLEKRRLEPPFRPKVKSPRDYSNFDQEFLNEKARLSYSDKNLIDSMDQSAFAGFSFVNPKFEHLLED

Row | Structure (SMILES) | Activity (Mus musculus [3]) [%] | Activity (Mus musculus [6]) [%] | Activity (Mus musculus [1]) [%] | Activity (Mus musculus [2]) [%] | Activity (Mus musculus [4]) [%] | Activity (Mus musculus [5]) [%] | further results
1 | COc1cc(OC)c2c(c1C(=O)N(C)C)OC1=CC(O)=C(C(C)=O)C(=O)[C@]12C | 95 | – | 14 | 96 | – | – | –
2 | CC(=O)C1=C(O)C=C2Oc3c4c(cc(O)c3[C@]2(C)C1=O)OC1(CCCCC1)NC4=O | – | 104 | – | – | 104 | 38 | –
3 | CC1=NOC2C=C3Oc4c(C(N)=O)c(O)cc(O)c4[C@]3(C)C(=O)C12 (stereo partly specified) | 126 | – | 1 | 102 | – | – | –
4 | CC(=O)C1=C(O)CC2Oc3c(C(N)=O)c(O)cc(O)c3[C@]2(C)C1=O (stereo partly specified) | 111 | – | 29 | 101 | – | – | –
5 | CC(=O)C1=C(O)C=C2Oc3c(C(N)=O)c(O)cc(O)c3[C@]2(C)C1=O | 34 | – | 71 | 83 | – | – | IC50 [7]: 5800 nM; Activity (Mus musculus [8]): 4.81 g/day; Activity (Mus musculus [9]): 1.89 g/day; Activity (Mus musculus [10]): 5.78 g/day; IC50 [11]: 350 nM; Activity (Mus musculus [12]): 3.65 g/day; Activity (Mus musculus [13]): 272 mg/dL; Activity (Mus musculus [14]): 45.9 g; Activity (Mus musculus [15]): 47 g; IC50 [16]: 1020 nM; Activity (Mus musculus [17]): 39.1 g; Activity (Mus musculus [18]): 48.4 g; IC50 (Protein kinase C-like 1): 44 nM; Activity (Mus musculus [19]): 176 mg/dL; Activity (Mus musculus [20]): 571 mg/dL; Activity (Mus musculus [21]): 408 mg/dL
6 | COc1cc(O)c2c(c1C(N)=O)OC1=CC(O)=C(C(C)=O)C(=O)[C@]12C | 37 | – | 70 | 83 | – | – | –
7 | COc1cc(OC)c2c(c1C(N)=O)OC1=CC(O)=C(C(C)=O)C(=O)[C@]12C | 92 | – | 26 | 100 | – | – | –

The next lines start with results.

Row | Activity (Mus musculus [3]) [%] | Activity (Mus musculus [6]) [%] | Structure (SMILES) | Activity (Mus musculus [1]) [%] | Activity (Mus musculus [2]) [%] | Activity (Mus musculus [4]) [%] | Activity (Mus musculus [5]) [%] | further results
8 | 78 | 92 | CC(=O)C1=C(O)C=C2Oc3c4c(cc(O)c3[C@]2(C)C1=O)OC(C)(C)NC4=O | 56 | 102 | 102 | 35 | Activity [22]: inactive; Activity [23]: inactive; Activity [24]: inactive; Activity [25]: inactive; Activity [26]: inactive; Activity [27]: inactive; Activity [28]: inactive
9 | – | 106 | CC(=O)C1=C(O)C=C2Oc3c4c(cc(O)c3[C@]2(C)C1=O)OC1(CCCC1)NC4=O | – | – | 102 | 7 | –
10 | – | 94 | CC(=O)C1=C(O)C=C2Oc3c4c(cc(O)c3[C@]2(C)C1=O)OC(C)(c1ccccc1)NC4=O (stereo partly specified) | – | – | 100 | 54 | –
